Calls of active or inactive are those of the source.
Experiments:
[1] = protection from phage-mediated lysis, alamar blue read-out – E. coli UTI89, K1F phage, bacterial capsule biogenesis inhibitors (AID 488966); format: functional
[2] = molecular target: Induced myeloid leukemia cell differentiation protein Mcl-1 (Homo sapiens, UniProt Q07820); format: functional
[3] = molecular target: Heat shock protein HSP 90-alpha (Homo sapiens, UniProt P07900); format: functional, organism-based
[4] = molecular target: G-protein coupled receptor 55 (Homo sapiens, UniProt Q9Y2T6); assay: inhibition of LPI-stimulated GPR55 beta-arrestin translocation – imaging, U2OS, beta-arrestin-GFP, LPI agonist, primary screen (AID 2013); format: functional;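 also: antagonist potency measured as reduced agonist-driven arrestin aggregation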
[5] = loss of viability in HepG2 cells – cell-based, CellTiter-Glo, cherry-picked, cytotoxicity control for Shn3 inhibitor project, dose response (AID 624134); format: functional
[6] = molecular target: T1, Kappa-type opioid receptor (Homo sapiens, UniProt P41145); format: functional
[7] = molecular target: T2, Delta-type opioid receptor (Homo sapiens, UniProt P41143); assay: HTS Image-Based Screen for Agonists of the DOR Receptor. [Related pubchem assays (depositor defined):AID1777, AID1786, AID2133]; format: functional
[8] = reduction of Shn3 3'UTR-driven luciferase in osteoblasts – cell-based, Clone20 osteoblasts, firefly luciferase, cherry-picked, dose response (AID 624132); format: functional;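 also: firefly luciferase luminescence from reporter carrying the Shn3 3'UTR in osteoblasts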
[9] = decrease of insulin promoter-GFP reporter – imaging, high-content screening, mouse beta cells (AID 1628); format: functional; conditions: MIN6
Beta-galactosidase = Beta-galactosidase (Escherichia coli, UniProt Q8VNN2); format: functional
INS1 = assay: INS-1E survival protection against cytokine death – cell-based, luminescence, retest, dose response (AID 449756); format: functional; conditions: Rattus norvegicus;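 also: cell death triggered by IL-1 beta plus TNF-alpha plus IFN-gamma mixture; protective hits raise ATP signal compared with cytokine alone wells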
Mu-type opioid receptor = Mu-type opioid receptor (Homo sapiens, UniProt P35372); assay: HTS Image-Based Screen for Agonists of the MOR Receptor. [Related pubchem assays (depositor defined):AID1777, AID1785, AID1786, AID2133]; format: functional;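 also: imaging of beta-arrestin GFP recruitment into spots after receptor activation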
Streptococcus = assay: GAS UMAA2166 growth inhibition – luminescence, BacTiterGlo, counter-screen for streptokinase expression inhibitor project, dose response (AID 1915); format: functional, organism-based;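 also: potency for reduction of bacterial viability or growth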
[10] = M. tuberculosis H37Rv growth inhibitors, H37Rv strain (AID 1626); format: functional
[11] = MIN6 cell viability loss – mouse insulinoma, cytotoxicity control, dose response (AID 2122); format: functional;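 also: confirmatory high-throughput counterscreen run to flag cytotoxic compounds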
[12] = molecular target: T1, Kappa-type opioid receptor; format: functional; remark: listed apart in the source
[13] = non-specific 3'UTR reporter inhibition in Clone20-Shn3RL – cell-based, Renilla luciferase, cherry-picked, counter-screen for Shn3 inhibitor project, dose response (AID 624133); format: functional
[14] = molecular target: T2, Delta-type opioid receptor; assay: HTS Image-Based Screen for Antagonists of the DOR Receptor. [Related pubchem assays (depositor defined):AID1777, AID1785, AID1786, AID2133]; format: functional
[15] = system: Streptococcus sp. 'group A'; assay: Streptococcus pyogenes SK(-)GAS viability under kanamycin – luminescence, BacTiterGlo, confirmation, counter-screen for streptokinase expression inhibitor project, dose response (AID 1900); format: functional, organism-based
[16] = molecular target: T3, Tyrosine-protein phosphatase non-receptor type 22 (Homo sapiens, UniProt Q9Y2R2); format: functional
T3 sequence (Q9Y2R2 whole entry): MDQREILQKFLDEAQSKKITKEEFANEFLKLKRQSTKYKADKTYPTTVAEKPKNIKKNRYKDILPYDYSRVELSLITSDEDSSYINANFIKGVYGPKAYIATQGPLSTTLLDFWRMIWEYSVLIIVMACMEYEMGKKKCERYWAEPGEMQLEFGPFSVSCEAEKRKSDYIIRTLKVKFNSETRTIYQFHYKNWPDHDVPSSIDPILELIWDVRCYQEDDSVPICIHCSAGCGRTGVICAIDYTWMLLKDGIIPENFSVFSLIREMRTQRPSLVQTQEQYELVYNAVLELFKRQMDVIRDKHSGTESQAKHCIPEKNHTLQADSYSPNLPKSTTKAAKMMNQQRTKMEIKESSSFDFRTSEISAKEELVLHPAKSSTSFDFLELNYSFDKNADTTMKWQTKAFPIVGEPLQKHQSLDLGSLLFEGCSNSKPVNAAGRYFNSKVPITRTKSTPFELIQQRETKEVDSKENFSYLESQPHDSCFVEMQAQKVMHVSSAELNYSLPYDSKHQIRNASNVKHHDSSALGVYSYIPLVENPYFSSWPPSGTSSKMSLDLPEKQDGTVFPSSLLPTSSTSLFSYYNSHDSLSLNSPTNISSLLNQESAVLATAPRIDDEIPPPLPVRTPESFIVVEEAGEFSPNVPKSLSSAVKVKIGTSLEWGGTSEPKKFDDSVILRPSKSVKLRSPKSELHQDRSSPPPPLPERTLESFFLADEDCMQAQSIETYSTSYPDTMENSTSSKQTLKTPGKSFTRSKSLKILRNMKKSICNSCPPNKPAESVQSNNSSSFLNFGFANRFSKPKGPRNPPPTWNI

[17] = molecular target: T3, Tyrosine-protein phosphatase non-receptor type 22; format: functional; remark: listed apart in the source
[18] = molecular target: T4, Tyrosine-protein phosphatase non-receptor type 7 (Homo sapiens, UniProt P35236); format: functional
T4 sequence (P35236 whole entry): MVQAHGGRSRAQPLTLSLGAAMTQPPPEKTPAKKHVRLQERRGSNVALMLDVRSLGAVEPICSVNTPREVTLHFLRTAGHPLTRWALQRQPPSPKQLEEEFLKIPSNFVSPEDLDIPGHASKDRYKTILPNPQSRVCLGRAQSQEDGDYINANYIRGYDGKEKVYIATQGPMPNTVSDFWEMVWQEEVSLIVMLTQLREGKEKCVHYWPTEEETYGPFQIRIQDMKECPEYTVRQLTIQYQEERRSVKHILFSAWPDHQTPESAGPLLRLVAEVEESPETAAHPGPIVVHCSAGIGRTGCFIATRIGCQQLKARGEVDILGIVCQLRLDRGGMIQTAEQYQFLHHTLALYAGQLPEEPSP

[19] = molecular target: T5, Small ubiquitin-related modifier 1 (Homo sapiens, UniProt P63165); assay: SUMO1 protein interaction blockers, potency – biochemical, fluorescence polarization, uHTS hits, dose response (AID 624382); format: functional; conditions: read-out: IC50_Mean
[20] = molecular target: T5, Small ubiquitin-related modifier 1; assay: SUMO1 protein-protein binding blockers, potency – biochemical, FRET, dose response (AID 624383); format: functional; conditions: read-out: IC50_Mean
X-box-binding protein 1 = X-box-binding protein 1 (Homo sapiens, UniProt P17861); format: functional, Cricetulus griseus;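 also: confirmatory dose-response counter-screen serving a CHOP assay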
Chain of X-box-binding protein 1 (P17861 whole entry): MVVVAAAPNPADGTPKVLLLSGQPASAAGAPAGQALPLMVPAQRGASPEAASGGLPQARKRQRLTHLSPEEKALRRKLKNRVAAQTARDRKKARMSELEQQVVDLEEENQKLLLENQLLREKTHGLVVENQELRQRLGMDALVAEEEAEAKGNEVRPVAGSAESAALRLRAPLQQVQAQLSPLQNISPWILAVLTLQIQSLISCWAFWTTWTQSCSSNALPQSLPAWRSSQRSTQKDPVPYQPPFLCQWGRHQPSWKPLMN

T1 sequence (P41145 whole entry): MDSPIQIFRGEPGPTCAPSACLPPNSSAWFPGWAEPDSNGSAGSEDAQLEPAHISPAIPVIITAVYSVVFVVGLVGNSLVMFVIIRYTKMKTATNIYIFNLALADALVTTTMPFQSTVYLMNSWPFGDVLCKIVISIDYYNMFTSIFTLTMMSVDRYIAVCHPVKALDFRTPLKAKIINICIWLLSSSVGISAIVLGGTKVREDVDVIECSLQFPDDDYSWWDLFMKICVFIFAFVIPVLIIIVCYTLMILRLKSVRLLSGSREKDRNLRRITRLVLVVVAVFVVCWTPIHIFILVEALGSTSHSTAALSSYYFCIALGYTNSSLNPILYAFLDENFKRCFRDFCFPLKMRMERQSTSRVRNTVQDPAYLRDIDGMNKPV
T2 sequence (P41143 whole entry): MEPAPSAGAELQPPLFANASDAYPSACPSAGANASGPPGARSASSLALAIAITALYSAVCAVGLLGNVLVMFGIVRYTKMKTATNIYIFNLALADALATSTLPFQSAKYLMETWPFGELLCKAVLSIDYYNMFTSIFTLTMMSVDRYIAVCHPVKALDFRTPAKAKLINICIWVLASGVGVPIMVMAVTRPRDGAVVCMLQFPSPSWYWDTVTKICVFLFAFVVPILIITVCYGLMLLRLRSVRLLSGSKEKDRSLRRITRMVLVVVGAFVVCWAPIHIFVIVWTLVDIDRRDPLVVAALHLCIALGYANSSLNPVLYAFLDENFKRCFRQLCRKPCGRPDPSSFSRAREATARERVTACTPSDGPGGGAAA
T5 sequence (P63165 whole entry): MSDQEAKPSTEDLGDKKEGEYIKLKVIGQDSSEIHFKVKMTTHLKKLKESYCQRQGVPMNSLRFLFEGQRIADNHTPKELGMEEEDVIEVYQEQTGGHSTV
Chain of Induced myeloid leukemia cell differentiation protein Mcl-1 (Q07820 whole entry): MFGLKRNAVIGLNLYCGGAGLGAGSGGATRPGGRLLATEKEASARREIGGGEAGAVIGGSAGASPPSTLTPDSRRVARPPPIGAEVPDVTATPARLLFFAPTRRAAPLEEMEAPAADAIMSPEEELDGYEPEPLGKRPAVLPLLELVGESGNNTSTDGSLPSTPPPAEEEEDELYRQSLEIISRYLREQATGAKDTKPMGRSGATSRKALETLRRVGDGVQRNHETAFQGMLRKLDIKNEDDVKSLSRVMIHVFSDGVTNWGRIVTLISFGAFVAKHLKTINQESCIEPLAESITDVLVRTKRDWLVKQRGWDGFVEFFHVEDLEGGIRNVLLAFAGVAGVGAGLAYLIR
Chain of Beta-galactosidase (Q8VNN2 whole entry): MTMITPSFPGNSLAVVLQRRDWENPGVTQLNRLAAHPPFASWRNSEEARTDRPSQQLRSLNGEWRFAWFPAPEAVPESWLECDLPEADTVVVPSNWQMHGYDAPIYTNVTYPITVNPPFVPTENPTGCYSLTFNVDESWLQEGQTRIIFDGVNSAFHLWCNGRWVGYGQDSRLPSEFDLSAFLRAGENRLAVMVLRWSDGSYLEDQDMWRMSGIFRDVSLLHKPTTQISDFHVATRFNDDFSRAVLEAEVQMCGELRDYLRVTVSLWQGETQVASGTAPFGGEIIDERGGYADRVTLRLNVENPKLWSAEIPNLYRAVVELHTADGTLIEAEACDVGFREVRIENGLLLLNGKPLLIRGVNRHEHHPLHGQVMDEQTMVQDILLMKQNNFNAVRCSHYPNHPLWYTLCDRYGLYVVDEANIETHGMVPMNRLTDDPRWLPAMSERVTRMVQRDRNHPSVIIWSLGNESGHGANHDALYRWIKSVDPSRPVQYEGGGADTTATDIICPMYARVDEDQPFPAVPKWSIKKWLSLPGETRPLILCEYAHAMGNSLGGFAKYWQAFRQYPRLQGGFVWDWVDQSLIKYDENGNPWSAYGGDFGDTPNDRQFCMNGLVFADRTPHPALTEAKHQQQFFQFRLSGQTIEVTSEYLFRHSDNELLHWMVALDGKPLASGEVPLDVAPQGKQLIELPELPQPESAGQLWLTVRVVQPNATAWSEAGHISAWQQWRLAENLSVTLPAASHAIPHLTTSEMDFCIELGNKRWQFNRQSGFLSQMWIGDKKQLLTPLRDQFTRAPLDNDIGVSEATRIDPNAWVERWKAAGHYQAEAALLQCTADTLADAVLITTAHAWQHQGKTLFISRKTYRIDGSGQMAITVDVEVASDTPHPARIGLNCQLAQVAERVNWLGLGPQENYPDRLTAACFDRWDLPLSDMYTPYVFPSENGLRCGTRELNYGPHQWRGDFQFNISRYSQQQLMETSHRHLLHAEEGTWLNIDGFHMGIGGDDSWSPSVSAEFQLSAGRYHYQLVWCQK
Chain of G-protein coupled receptor 55 (Q9Y2T6 whole entry): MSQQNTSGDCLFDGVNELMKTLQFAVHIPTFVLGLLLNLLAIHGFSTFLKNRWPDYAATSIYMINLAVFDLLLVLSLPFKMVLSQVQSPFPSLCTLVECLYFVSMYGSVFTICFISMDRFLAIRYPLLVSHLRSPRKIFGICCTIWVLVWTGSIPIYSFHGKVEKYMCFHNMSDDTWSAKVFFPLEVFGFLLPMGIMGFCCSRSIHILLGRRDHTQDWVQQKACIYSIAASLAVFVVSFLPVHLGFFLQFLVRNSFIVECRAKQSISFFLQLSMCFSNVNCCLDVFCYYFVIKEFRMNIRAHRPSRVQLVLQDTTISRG
Chain of Mu-type opioid receptor (P35372 whole entry): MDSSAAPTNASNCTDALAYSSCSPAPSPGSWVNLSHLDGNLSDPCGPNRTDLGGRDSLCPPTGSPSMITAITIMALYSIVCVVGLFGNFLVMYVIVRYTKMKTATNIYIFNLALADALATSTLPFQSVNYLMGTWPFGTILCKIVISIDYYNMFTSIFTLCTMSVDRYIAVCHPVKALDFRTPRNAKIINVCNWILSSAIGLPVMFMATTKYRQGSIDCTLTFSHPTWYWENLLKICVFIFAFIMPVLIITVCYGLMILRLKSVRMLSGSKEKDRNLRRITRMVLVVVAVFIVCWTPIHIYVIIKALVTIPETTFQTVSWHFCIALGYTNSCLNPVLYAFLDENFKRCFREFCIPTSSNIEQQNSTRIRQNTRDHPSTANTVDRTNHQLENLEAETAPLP

CCc1ccc2nc3sc(C(=O)Nc4nnc(CC)s4)c(N)c3cc2c1
IC50 [1]: > 150 µM (active)
IC50 [2]: 4.39 µM (not active)

CC(C)(C)C(=O)C(Cl)C(=O)Nc1ccccc1 (centres undefined)
AC50 [3]: 1.05 µM (active)
IC50 [4]: 0.696 µM (active)

Cc1ccc(C(=O)Oc2ccc(/C=C3\C(=N)N4N=C(N5CCOCC5)SC4=NC3=O)cc2)cc1
IC50 [1]: > 75 µM (active)

CCc1nnc(NC(=O)c2cccc(C(=O)Nc3nnc(CC)s3)n2)s1
AC50 [5]: 5.56 µM (active)
IC50 [6]: > 32 µM
EC50 [7]: > 32 µM (inactive)
AC50 [8]: 1.45 µM (active)
IC50 [9]: 0.666 µM (active)
EC50 (Beta-galactosidase): > 31.5 µM (inactive)
AC50 (INS1): 0.678 µM (active)
EC50 (Mu-type opioid receptor): > 32 µM (inactive)
EC50 (Streptococcus): 3.5 µM (active)
IC50 [10]: 100 µM (active)
IC50 [11]: 0.568 µM (active)
IC50 [12]: 5 µM (inactive)
AC50 [13]: 0.573 µM (active)
IC50 [14]: > 32 µM (inactive)
EC50 [15]: 0.829 µM (active)

COc1ccc2c(-c3ccccc3)cc(N3CCOCC3)nc2c1
IC50 [16]: > 79.4 µM (inactive)
IC50 [17]: > 79.4 µM (inactive)
IC50 [18]: > 79.4 µM (inactive)

CC(=O)c1ccc2c(c1)C1C(Cl)C(Sc3ccccc3[N+](=O)[O-])CC1C(C(=O)O)N2 (centres undefined)
IC50 [19]: > 66.6 µM (inactive)
IC50 [16]: 57.9 µM (active)
IC50 [17]: 32 µM (active)
IC50 [20]: 13.2 µM (active)
IC50 [18]: 58.2 µM (active)

Cc1ccc(NC(=O)C(=O)NCC2OCCc3ccccc32)cc1 (centres undefined)
Absolute IC50 (XBP1) (X-box-binding protein 1): 10 µM

Source: ChEMBL document CHEMBL1201862, “PubChem BioAssay data set” (2004)
